In patent publication US11890279B2, “Quinolines that modulate SERCA and their use for treating disease” (Neurodon Corporation, priority 2020, dated 2024):

How the values were obtained:
[1] = tested on: HEK293 cells; assay: Protection against thapsigargin (TG)-induced cell death, HEK293; type: cell-based, human; conditions: compound 20 μM; thapsigargin 15 μM; 24 hrs
Procedure: (§1) Protection against Thapsigargin (TG)-induced Cell-death. Human embryonic kidney (HEK293) cells were grown in Dulbecco's Modified Eagle's Medium (DMEM) with 10% FBS and 1% antibiotic antimycotic solution (ABAM). Mouse neuroblastoma (N2a) cells were grown in 1:1 DMEM:OPTI-MEM® with 5% FBS and 1% ABAM. All cells were grown in 10% CO2 in a humidified environment of the incubator. Cells grown in 96-well plates were exposed to a test compound (20 μM) for 2 hrs before addition of thapsigargin (15 μM for HEK293 cells and 1 μM for N2a cells) to induce ER stress. After incubation in cell-culture incubator for 24 hrs, ALAMARBLUE® regent (10% v/v) was added to the wells. Fluorescence reading was taken 2 hrs after the addition of the ALAMARBLUE® regent. Cell-viability was calculated as a percentage of relative fluorescence unit (RFU) compared to control.
(§2) The results are summarized in Table 2, where A represents a value greater than 50% cell rescue, B represents a value between 10% to 50% cell rescue, C represents a value between 1% to 10% cell rescue, and D represents a value no greater than 1% cell rescue.

[2] = tested on: ob/ob mice; assay: Effect on the level of blood glucose in ob/ob mice; type: in vivo, mouse; conditions: for blood glucose: 10 or 50 mg/kg i.p. once a day for 5 days, as early as day 2; for glucose level after the last injection: for over a week after the last injection
Procedure: Fasting glucose was measured at baseline and 10 hours after the administration of the test compound. Glucose levels were measured in blood samples drawn from the tail vein using the OneTouch Ultra 2 Meter (LifeScan, Inc.).

[3] = Pharmacokinetics in CD-1 mice; type: in vivo, mouse; conditions: for F / AUC / Cmax / half-life: CD-1 mice; for F: 10 mg/kg P.O. vs 2 mg/kg i.v.; for pharmacokinetic properties as measured by CMAX, AUC and F (%): compared with other SERCA modulators, see Table 6; for AUC / Cmax / half-life: mouse, plasma, 2 mg/kg i.v. or 10 mg/kg P.O.
Procedure: Pharmacokinetics of test compounds were assessed in CD-1 mice. The compounds were formulated at 1 mg/mL in DMSO/Tween 80/water (10/10/80, vol/vol/vol) and dosed at 2 mg/kg intravenous (i.v.) or 10 mg/kg by oral gavage (P.O.) in triplicate. Blood was drawn at 0.25 h, 0.5 h, 1 hr, 2 hrs, 4 hrs, 8 hrs, and 24 hrs into EDTA containing tubes and plasma was harvested by centrifugation. Plasma (10 μL) containing 50% acetonitrile in water (5 μL) was added to 200 μL of ACN containing an internal standard. The samples were vortexed for 30 s. After centrifugation at […] and 4,000 rpm for 15 min, the supernatant was diluted 3 times with water. Then, 20 μL of diluted supernatant was injected into the LC/MS/MS system for quantitative analysis. The samples were injected onto an Agilent ZORBAX XDB-Phenyl 5μ column (50×2.10 mm). Mobile Phase A was water with 0.1% formic acid. Mobile Phase B was acetonitrile with 0.1% formic acid. Separation was achieved using a gradient of 70% A/30% B to 0% A/100% B over 2.10 min. A Shimadzu LCMS-8050 equipped with a turbo ion spray source was used for all analytical measurements. A positive ion MRM method was developed. Peak areas of the product ion were measured against the peak areas of the internal standard. Data was fit using WinNonLin (Pharsight Corporation, Mountain View, CA).

[4] = tested on: human islet microtissues; assay: Protection of human pancreatic islets under cytokine stress; type: cell-based; conditions: 168 h, compound 5 μM, cytokine cocktail IL1-β, IFN-γ, TNF-α, 7 days, read-out: increase in viability over baseline (total ATP content)
Procedure: Human pancreatic islet microtissues treated with cytokines were used to model the conditions of Type 1 Diabetes in vitro. This study tested the effects of compounds on […] viability in human islets under cytokine stress. The model consisted of human islet microtissues from an HLA-A2 positive donor grown and separated in a 96-well plate (1 microtissue per well). The microtissues were treated for 7 days with a cocktail of cytokines (IL1-β 5 ng/mL, IFN-γ 25 ng/mL, TNF-α 25 ng/mL) and compound (5 μM) or vehicle. There were 6 microtissues treated per compound or vehicle. At day 7, the total ATP content was measured using CellTiter-Glo (Promega).

[5] = tested on: N2a cells; assay: Protection against thapsigargin (TG)-induced cell death, N2a; type: cell-based, mouse; conditions: compound 20 μM; thapsigargin 1 μM; 24 hrs
Procedure: as §1, §2

[6] = tested on: CSM14.1 cells; assay: ER stress cell survival assay (thapsigargin); type: cell-based; conditions: compound 2 μM; about 15 μM thapsigargin; CSM14.1 cells;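 also: survival read as CellTiter-Glo luminescence after overnight incubation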
[7] = tested on: Ca^2+-ATPase; assay: Ca2+-ATPase assay, microsomal preparations from HEK 293 cells; type: biochemical, human
Procedure: A Ca^2+-ATPase assay was performed using microsomal preparations from HEK 293 cells at a series of calcium concentrations corresponding to the physiological range, relative to controls. The ATP hydrolysis rate was measured over a range of calcium concentrations in the presence of test compounds using an NADH-linked, enzyme-coupled ATPase assay adapted for 96-well microplates, with Vmax determined by fitting the ATPase calcium-dependence to the Hill function. […] CaCl2 was added to set free [Ca^2+] to the specific values.

[8] = tested on: N2a cells; assay: Protection against hydrogen peroxide-induced cell death, N2a; type: cell-based, mouse; conditions: compound 40 μM; hydrogen peroxide 200 μM
Summary of the method: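 N2a cells were pretreated 2 h with compound at 40 μM, then exposed to 200 μM H2O2 for 40 min. AlamarBlue (10% v/v) was added and fluorescence read 2 h later. Viability expressed as % RFU of control, reported as % cell rescue.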

[9] = Pharmacokinetics in Sprague Dawley rats; type: in vivo, rat; conditions: rat; for AUC(0-t): read-out: AUC0-t; for MRT inf: read-out: MRT0-∞
Procedure: Blood was drawn at 5 min, 15 min, 30 min, 1 hr, 2 hrs, 4 hrs, 6 hrs, and 8 hrs into EDTA containing tubes and plasma was harvested by centrifugation. Plasma (25 μL) was treated with acetonitrile (125 μL) containing an internal standard. The sample was then centrifuged for 5 min at 4,000 rpm in a tabletop centrifuge and the filtrate was collected. The filtrate was injected onto a Thermo Betasil C18 HPLC column 5 (50×2.1 mm). Mobile Phase A was water with 0.1% formic acid. Mobile Phase B was acetonitrile with 0.1% formic acid. […] An API Sciex 4000 equipped with a turbo ion spray source was used for all analytical measurements. A positive ion MRM method was developed. Peak areas of the product ion were measured against the peak areas of the internal standard. Data was fit using WinNonLin (Pharsight Corporation, Mountain View, CA).

[10] = Pharmacokinetics in Beagle dogs; type: in vivo; conditions: dog; for MRT inf: read-out: MRT0-∞
Procedure: Pharmacokinetics of compound A13 was assessed in dogs. […] For pharmacokinetic evaluation, 3 male Beagle dogs were intravenously (IV) dosed (1 mg/kg body weight) and 3 male Beagle dogs were orally (PO) dosed (10 mg/kg body weight) with a test compound. Blood (approximately 1.0 mL) was collected via femoral vein into tubes containing K3EDTA anticoagulant at 0, 0.017, 0.083, 0.5, 1, 2, 4, 6, 8, and 24 hours post-dosing. Plasma samples were analyzed by LC-MS/MS. The analytical results were confirmed using quality control samples for intra-assay variation. The accuracy of >66% of the quality control samples was between 80-120% of the known value(s). A standard set of pharmacokinetic parameters were generated from concentration data including Area Under the Curve (AUC0-t and AUC0-inf), elimination half-lives, clearances, volume of distribution and bioavailabilities (based on AUC0-t), maximum plasma concentration (C0; Cmax), and time to reach maximum plasma concentration (Tmax).

[11] = tested on: SERCA (SR vesicles); assay: Activation of SERCA, increase in Vmax; type: biochemical
Procedure: Test compounds were characterized over a range of concentrations using an NADH-linked, enzyme-coupled ATPase assay. Each well contained 2 mg or 7 mg of SR vesicles (optimized for skeletal or cardiac SR, respectively), 50 mM MOPS (pH 7.0), 100 mM KCl, 5 mM MgCl2, 1 mM EGTA, 0.2 mM NADH, 1 mM phosphoenol pyruvate, 5 IU pyruvate kinase, 5 IU lactate dehydrogenase, and 3.5 mg/mL A23187 (a calcium ionophore), and CaCl2 was added to set free [Ca2+] to the specific values. The assay was started upon addition of ATP at a final concentration of 5 mM, and read in a SpectraMax Plus microplate spectrophotometer and the ATPase activities were fitted using the Hill function.

[12] = Sprague Dawley, in vivo, IV 2 mg/kg
[13] = Sprague Dawley, in vivo, PO 10 mg/kg
[14] = male, Beagle, plasma, IV 1 mg/kg
[15] = male, Beagle, plasma, PO 10 mg/kg

Compound: Cc1ccc2cccc(NC(=O)c3ccc(NC(C)C)cc3)c2n1 [Compound C20, 4-(Isopropylamino)-N-(2-methylquinolin-8-yl)benzamide]
- HEK293 Cells (TG-induced) cell rescue [1]: B (B represents a value between 10% to 50% cell rescue)
- blood glucose [2]: significantly lowered
- glucose level after the last injection [2]: identical to lean mice
- F [3]: 28%
- pharmacokinetic properties as measured by CMAX, AUC and F (%) [3]: significantly improved pharmacokinetic properties
- AUC [3]: 330 ng·h/mL
- Cmax [3]: 860 nM
- half-life [3]: 39.6 min
- viability at 5 µM [4]: 20 to 50%
- N2a Cells (TG-induced) cell rescue [5]: B (B represents a value between 10% to 50% cell rescue)
- Cell Survival [6]: A (A represents a value greater than 50%)
- increase in baseline ATPase activity [7]: greater than 15%
- N2a Cells (H2O2-induced) cell rescue [8]: B (B represents a value between 10% to 50% cell rescue)

Compound: Cc1ccc2cccc(NC(=O)c3cccc(OC(C)C)c3)c2n1 [Compound A13, 3-Isopropoxy-N-(2-methylquinolin-8-yl)benzamide]
- AUC(0-inf) [9, 12]: 847 ± 29 ng·h/mL
- Cmax [9, 12]: 8370 ± 1100 nM
- Tmax [9, 12]: 4.8 min
- clearance [9, 12]: 39.3 mL/min/kg
- half-life [9, 12]: 121 min
- AUC(0-t) [9, 12]: 842 ± 31 ng·h/mL
- MRT inf [9, 12]: 27 min
- Vd ([9]; Sprague Dawley, in vivo, IV 2 mg/kg, read-out: Vz): 6.87 L/kg
- AUC(0-inf) [9, 13]: 234 ± 154 ng·h/mL
- Cmax [9, 13]: 800 ± 350 nM
- Tmax [9, 13]: 25.2 min
- half-life [9, 13]: 22.8 min
- AUC(0-t) [9, 13]: 232 ± 154 ng·h/mL
- MRT inf [9, 13]: 38.4 min
- F ([9]; PO 10 mg/kg vs IV 2 mg/kg): 5.5%
- F [3]: 3.1%
- AUC [3]: 26 ng·h/mL
- Cmax [3]: 120 nM
- half-life [3]: 50.4 min
- viability at 5 µM [4]: 20 to 50%
- F ([10]; PO 10 mg/kg vs IV 1 mg/kg): 1.4%
- AUC(0-inf) [10, 14]: 96 ± 12 ng·h/mL
- AUC(0-t) [10, 14]: 95 ± 12 ng·h/mL
- Cmax [10, 14]: 2200 ± 500 nM
- Tmax [10, 14]: 1.2 min
- clearance [10, 14]: 177 mL/min/kg
- half-life [10, 14]: 20.4 min
- MRT inf [10, 14]: 12.6 min
- Vd ([10]; male, Beagle, plasma, IV 1 mg/kg, read-out: Vz): 5.4 L/kg
- Cmax [10, 15]: 80 ± 60 nM
- Tmax [10, 15]: 21.6 min
- half-life [10, 15]: 22.2 min
- MRT inf [10, 15]: 37.2 min
- increase in baseline ATPase activity [7]: 10-15%
- Increase in Vmax at 10 μM [11]: B′ (B′ represents an increase between 20 to 50%)

Compound: CCNc1ccc(C(=O)Nc2cccc3ccc(C)nc23)cc1 [Compound C19, 4-(Ethylamino)-N-(2-methylquinolin-8-yl)benzamide]
- HEK293 Cells (TG-induced) cell rescue [1]: A (A represents a value greater than 50% cell rescue)
- blood glucose [2]: significantly lowered
- glucose level after the last injection [2]: identical to lean mice
- F [3]: 27%
- pharmacokinetic properties as measured by CMAX, AUC and F (%) [3]: significantly improved pharmacokinetic properties
- AUC [3]: 344 ng·h/mL
- Cmax [3]: 850 nM
- half-life [3]: 138 min
- viability at 5 µM [4]: 20 to 50%
- N2a Cells (TG-induced) cell rescue [5]: B (B represents a value between 10% to 50% cell rescue)
- Cell Survival [6]: A (A represents a value greater than 50%)
- increase in baseline ATPase activity [7]: 10-15%
- N2a Cells (H2O2-induced) cell rescue [8]: A (A represents a value greater than 50% cell rescue)
